What is called EC50 is the concentration giving half of the maximal effect. A higher EC50 goes with a need for much substance. What is called Emax is the maximal effect, on the per cent scale that the assay sets.

19 molecules from patent US12630498B2 (Genzyme Corporation, priority 2019, dated 2026) can be followed below.

Test [1] deals with T1, human Cystic Fibrosis Transmembrane Conductance Regulator (CFTR) harboring the ΔF508 mutation (Homo sapiens, UniProt P13569, DEL508-508).
T1 construct: expressed in transfected cells; host or cells: H441 carcinoma line (G418-selected)
In words: H441 cell ΔF508-CFTR-HRP cell surface assay (Emax and EC50). It is filed as cell-based. The note with it: for Emax: NCI-H441, NA = Not active. The procedure, abridged: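 H441 and 41o- bronchial epithelial cells expressing ΔF508-CFTR with an extracellular-loop-4 HRP tag were treated with a 15-point compound series (24.5–0.001 μM) for two nights, H441 at 27° C, 41o- at 37° C with 0.0005 mg/ml doxycycline. Surface HRP luminescence read; % of maximum VX809 signal and EC50 derived.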

The target of test [2] is T2, CFTR-mediated transepithelial chloride transport in primary human bronchial epithelial cells from a ΔF508 homozygous CF donor (Homo sapiens, UniProt P13569, DEL508-508).
T2 construct: Primary human bronchial epithelial cells from a ΔF508 homozygous CF donor; host or cells: primary CF-HBE cells, ΔF508 homozygous donor
Nature of the test: TECC24 recording of CFTR-mediated transepithelial chloride transport in CF-HBE cells (AUC fold over DMSO). It is filed as cell-based. The note with it: test agent 10 μM, 48 hours incubation, AUC of forskolin-stimulated IEQ relative to DMSO. The method, then:
Example 316: TECC24 AUC Fold Over DMSO @ 10 uM
The effects of a test agent on CFTR-mediated transepithelial chloride transport was measured using TECC24 recording analysis. Test agents were solubilized in DMSO. Solubilized test agents were mixed with incubation medium containing DMEM/F12, Ultroser G (2%; Crescent Chemical, catalog #67042), Hyclone Fetal Clone II (2%; GE Healthcare, catalog #SH30066.02), bovine brain extract (0.25%; Lonza, catalog #CC-4098), insulin (2.5 μg/mL), IL-13 (10 ng/mL), hydrocortisone (20 nM), transferrin (2.5 μg/mL), triiodothyronine (500 nM), ethanolamine (250 nM), epinephrine (1.5 μM), phosphoethanolamine (250 nM), and retinoic acid (10 nM). Primary human bronchial epithelial cells from a ΔF508 homozygous CF donor (CF-HBE cells; from University of North Carolina Cystic Fibrosis Tissue Procurement Center), grown on Transwell HTS 24-well cell culture inserts (Costar, catalog #3378), were exposed to test agents or controls dissolved in incubation medium. The CF-HBE cells were cultured at 36.5° C. for 48 hours before TECC24 recordings were performed in the presence or absence of test agent, a positive control or vehicle (DMSO).
Following incubation, the transwell cell culture inserts containing the test agent or control-treated CF-HBE cells were loaded onto a TECC24 apparatus (TECC v7 or MTECC v2; EP Design) to record the transepithelial voltage (VT) and resistance (TEER) using 4 AgCl electrodes per well configured in current-clamp mode. The apical and basolateral bath solutions both contained (in mM) 140 NaCl, 5 KCl, 2 CaCl2), 1 MgCl2, 10 Hepes, and 10 glucose (adjusted to pH 7.4 with NaOH). To inhibit basal Na+ absorption, the ENaC inhibitor benzamil (10 μM) was added to the bath. Then, the adenylate cyclase activator, forskolin (10 μM), was added to the bath to activate CFTR. The forskolin-stimulated Cl-transport was halted by addition of CFTR inhibitor-172 (20 μM) to the bath at the end of the experiment to confirm specificity. VT and TEER recordings were digitally acquired at routine intervals using TECC or MTECC software (EP Design). VT and TEER were transformed into equivalent transepithelial Cl-current (IEQ), and the Area Under the Curve (AUC) of the IEQ time course between forskolin and CFTR inhibitor-172 addition was generated using Excel (Microsoft). Efficacy is expressed as the ratio of the test agent AUC divided by vehicle AUC. EC50s based on AUC are generated using the non-linear regression log(agonist) vs. response function in Prism software (GraphPad) with Hill Slope fixed=1.
If a test agent increased the AUC of the forskolin-stimulated IEQ relative to vehicle in CF-HBE cells, and this increase was inhibited by CFTR inhibitor-172, then the test agent was considered a CFTR corrector.

T2 sequence (P13569 with tags, fused parts or gaps DEL508-508): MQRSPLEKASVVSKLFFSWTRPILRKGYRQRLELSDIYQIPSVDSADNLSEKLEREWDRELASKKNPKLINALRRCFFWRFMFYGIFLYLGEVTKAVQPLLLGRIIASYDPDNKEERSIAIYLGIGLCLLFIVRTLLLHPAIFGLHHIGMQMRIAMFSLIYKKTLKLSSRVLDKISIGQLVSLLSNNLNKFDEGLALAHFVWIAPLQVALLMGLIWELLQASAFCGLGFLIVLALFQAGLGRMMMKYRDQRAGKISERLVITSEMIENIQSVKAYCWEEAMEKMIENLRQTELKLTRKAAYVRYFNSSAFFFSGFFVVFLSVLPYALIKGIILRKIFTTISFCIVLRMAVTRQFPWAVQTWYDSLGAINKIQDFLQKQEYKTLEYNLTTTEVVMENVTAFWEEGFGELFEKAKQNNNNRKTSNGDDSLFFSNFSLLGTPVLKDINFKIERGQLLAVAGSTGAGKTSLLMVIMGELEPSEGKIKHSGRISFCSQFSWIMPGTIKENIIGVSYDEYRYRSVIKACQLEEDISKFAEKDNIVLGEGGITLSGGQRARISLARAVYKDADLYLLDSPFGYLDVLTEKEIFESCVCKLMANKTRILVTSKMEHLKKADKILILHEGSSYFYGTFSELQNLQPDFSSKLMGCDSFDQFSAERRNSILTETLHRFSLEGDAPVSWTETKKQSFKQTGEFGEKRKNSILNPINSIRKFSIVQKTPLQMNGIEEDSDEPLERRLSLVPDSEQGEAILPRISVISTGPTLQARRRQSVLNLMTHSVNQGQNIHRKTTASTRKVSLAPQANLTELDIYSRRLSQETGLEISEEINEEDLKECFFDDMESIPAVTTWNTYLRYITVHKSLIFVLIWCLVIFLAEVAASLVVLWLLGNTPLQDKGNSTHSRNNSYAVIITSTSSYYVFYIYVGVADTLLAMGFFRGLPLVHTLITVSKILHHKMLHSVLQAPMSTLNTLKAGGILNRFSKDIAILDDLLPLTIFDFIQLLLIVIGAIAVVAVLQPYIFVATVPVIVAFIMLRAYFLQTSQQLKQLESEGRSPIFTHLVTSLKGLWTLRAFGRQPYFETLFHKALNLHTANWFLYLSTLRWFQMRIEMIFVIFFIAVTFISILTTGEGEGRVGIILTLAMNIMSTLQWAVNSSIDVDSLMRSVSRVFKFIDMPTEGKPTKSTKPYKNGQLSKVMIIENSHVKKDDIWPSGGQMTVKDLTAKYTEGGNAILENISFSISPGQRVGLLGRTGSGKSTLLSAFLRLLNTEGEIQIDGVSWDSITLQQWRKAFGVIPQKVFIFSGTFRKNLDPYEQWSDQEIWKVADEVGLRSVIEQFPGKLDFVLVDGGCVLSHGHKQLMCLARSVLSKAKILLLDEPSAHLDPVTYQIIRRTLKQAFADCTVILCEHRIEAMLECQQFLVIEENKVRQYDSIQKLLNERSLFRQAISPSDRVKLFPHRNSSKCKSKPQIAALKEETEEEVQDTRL
T1 sequence (P13569 with tags, fused parts or gaps DEL508-508): as above

In test [1], `CC(C)(C)[C@H](NC(=O)c1cc(F)c2ccccc2c1OCc1ccc(C(F)(F)F)cc1)C(=O)O` [Example 64, (S)-2-(4-fluoro-1-((4-(trifluoromethyl)benzyl)oxy)-2-naphthamido)-3,3-dimethylbutanoic Acid] gave an EC50 of 600 nM and an Emax of 106%. The “TECC24 AUC fold over DMSO @10 μM” value in test [2] is reported as “C (“C” refers to AUC @10 uM <4)”.

For `CC(C)(C)[C@H](NC(=O)c1ccc2ccccc2c1OCc1ccc(S(F)(F)(F)(F)F)cc1)C(=O)O` [Example 67, (S)-3,3-dimethyl-2-(1-((4-(pentafluoro-l6-sulfanyl)benzyl)oxy)-2-naphthamido)butanoic Acid], in test [1], a half-maximal response (EC50) required 800 nM and the Emax turned out to be 112%. Also, the “TECC24 AUC fold over DMSO @10 μM” value in test [2] is “A (“A” refers to AUC @10 uM >6)”.

`CC1(C(NC(=O)c2ccc3ccccc3c2OCc2ccc(S(F)(F)(F)(F)F)cc2)C(=O)O)CC1` (stereo not shown) [Example 68, 2-(1-methylcyclopropyl)-2-(1-((4-(pentafluoro-l6-sulfanyl)benzyl)oxy)-2-naphthamido)acetic Acid]: in test [1], the EC50 came to 1900 nM and the Emax is 104%. For the same molecule, the “TECC24 AUC fold over DMSO @10 μM” value in test [2] is given as “C (“C” refers to AUC @10 uM <4)”.

Take `CC1(C(NC(=O)c2ccc3cc(F)ccc3c2OCc2ccc(SC(F)(F)F)cc2)C(=O)O)CCCCC1` (stereo not shown) [Example 69, 2-(6-fluoro-1-((4-((trifluoromethyl)thio)benzyl)oxy)-2-naphthamido)-2-(1-methylcyclohexyl)acetic Acid]: in test [1], the EC50 was determined as 400 nM and the Emax came to 57.7%. The “TECC24 AUC fold over DMSO @10 μM” value in test [2] is “C (“C” refers to AUC @10 uM <4)”.

For the molecule `CC(C)(C)[C@H](NC(=O)c1ccc2ccccc2c1OCc1ccc(C(F)(F)F)cc1F)C(=O)O` [Example 70, (S)-2-(1-((2-fluoro-4-(trifluoromethyl)benzyl)oxy)-2-naphthamido)-3,3-dimethylbutanoic Acid], in test [1], a half-maximal response (EC50) required 800 nM and the Emax amounted to 272%. The “TECC24 AUC fold over DMSO @10 μM” value in test [2] is on record as “C (“C” refers to AUC @10 uM <4)”.

In test [1], `CC(C)(C)[C@H](NC(=O)c1ccc2ccccc2c1OCC1CCCCC1)C(=O)O` [Example 72, (S)-2-(1-(cyclohexylmethoxy)-2-naphthamido)-3,3-dimethylbutanoic Acid] had a 50% effective concentration (EC50) of 3700 nM and an Emax of 144%. For the same molecule, the “TECC24 AUC fold over DMSO @10 μM” value in test [2] is listed as “C (“C” refers to AUC @10 uM <4)”.

In test [1], `CC(C)(C)[C@H](NC(=O)c1ccc2ccccc2c1OCc1ccc(C(F)(F)F)cc1)C(=O)O` [Example 74] returned an EC50 of 800 nM and an Emax of 216%. For the same molecule, the “TECC24 AUC fold over DMSO @10 μM” value in test [2] is recorded as “A (“A” refers to AUC @10 uM >6)”.

In test [1], `CC(C)(C)[C@H](NC(=O)c1ccc2cc(F)ccc2c1OCc1ccc(SC(F)(F)F)cc1)C(=O)O` [Example 75, (S)-2-(6-fluoro-1-((4-((trifluoromethyl)thio)benzyl)oxy)-2-naphthamido)-3,3-dimethylbutanoic Acid] returned an EC50 of 700 nM and an Emax of 94.2%. Further, the “TECC24 AUC fold over DMSO @10 μM” value in test [2] is recorded as “B (“B” refers to AUC @10 uM between 4-6)”.

With `CC1(C(NC(=O)c2ccc3ccccc3c2OCc2ccc(S(=O)(=O)C(F)(F)F)cc2)C(=O)O)CCCCC1` (stereo not shown) [Example 77, 2-(1-methylcyclohexyl)-2-(1-((4-((trifluoromethyl)sulfonyl)benzyl)oxy)-2-naphthamido)acetic Acid], in test [1], the EC50 was determined as 700 nM and the Emax is 78.9%. In addition, the “TECC24 AUC fold over DMSO @10 μM” value in test [2] was “C (“C” refers to AUC @10 uM <4)”.

In test [1], `CCC(C)(C)[C@H](NC(=O)c1ccc2ccccc2c1OCc1ccc(C(F)(F)F)cc1)C(=O)O` [Example 78, (S)-3,3-dimethyl-2-(1-((4-(trifluoromethyl)benzyl)oxy)-2-naphthamido)pentanoic Acid] displayed an EC50 of 400 nM and an Emax of 242%. Also, the “TECC24 AUC fold over DMSO @10 μM” value in test [2] is reported as “A (“A” refers to AUC @10 uM >6)”.

With `CC1(C(NC(=O)c2ccc3ccccc3c2OCc2ccc(C(F)(F)F)cc2)C(=O)O)CCCCC1` (stereo not shown) [Example 80, 2-(1-methylcyclohexyl)-2-(1-((4-(trifluoromethyl)benzyl)oxy)-2-naphthamido)acetic Acid], in test [1], the EC50 was found to be 400 nM and the Emax was 195%. Further, the “TECC24 AUC fold over DMSO @10 μM” value in test [2] is “C (“C” refers to AUC @10 uM <4)”.

`CC(C)(C)[C@H](NC(=O)c1ccc2cc(F)ccc2c1OCc1ccc(S(F)(F)(F)(F)F)cc1)C(=O)O` [Example 81, (S)-2-(6-fluoro-1-((4-(pentafluoro-16-sulfanyl)benzyl)oxy)-2-naphthamido)-3,3-dimethylbutanoic Acid]: in test [1], the midpoint of the response, the EC50, lay at 700 nM and the Emax is 91.9%. Further, the “TECC24 AUC fold over DMSO @10 μM” value in test [2] is recorded as “A (“A” refers to AUC @10 uM >6)”.

Turning to `CCC(C)(C)[C@H](NC(=O)c1ccc2cc(F)ccc2c1OCc1ccc(SC(F)(F)F)cc1)C(=O)O` [Example 84, (S)-2-(6-fluoro-1-((4-((trifluoromethyl)thio)benzyl)oxy)-2-naphthamido)-3,3-dimethylpentanoic Acid], in test [1], a half-maximal response (EC50) required 500 nM and the Emax was 80.5%. In addition, the “TECC24 AUC fold over DMSO @10 μM” value in test [2] is listed as “B (“B” refers to AUC @10 uM between 4-6)”.

In test [1], `Cc1cc(COc2c(C(=O)N[C@H](C(=O)O)C(C)(C)C)ccc3ccccc23)no1` [Example 86, (S)-3,3-dimethyl-2-(1-((5-methylisoxazol-3-yl)methoxy)-2-naphthamido)butanoic Acid] came in with an EC50 of 5600 nM and an Emax of 108%. For the same molecule, the “TECC24 AUC fold over DMSO @10 μM” value in test [2] is given as “C (“C” refers to AUC @10 uM <4)”.

In test [1], `O=C(N[C@@H](CCc1ccccc1)C(=O)O)c1ccc2ccccc2c1OCc1ccc(C(F)(F)F)cc1` [Example 88, (S)-4-phenyl-2-(1-((4-(trifluoromethyl)benzyl)oxy)-2-naphthamido)butanoic Acid] gave an EC50 of 7300 nM and an Emax of 64.4%. In addition, the “TECC24 AUC fold over DMSO @10 μM” value in test [2] is “C (“C” refers to AUC @10 uM <4)”.

Molecule `O=C(N[C@@H](Cc1ccccc1)C(=O)O)c1ccc2ccccc2c1OCc1ccccc1C(F)(F)F` [Example 93, (1-((2-(trifluoromethyl)benzyl)oxy)-2-naphthoyl)-L-phenylalanine] came in with an Emax in test [1] of 13.1%. The “TECC24 AUC fold over DMSO @10 μM” value in test [2] was “C (“C” refers to AUC @10 uM <4)”.

In test [1], `O=C(N[C@@H](Cc1ccccc1)C(=O)O)c1ccc2ccccc2c1OCc1cccc(C(F)(F)F)c1` [Example 95, (1-((3-(trifluoromethyl)benzyl)oxy)-2-naphthoyl)-L-phenylalanine] displayed an EC50 of 16000 nM and an Emax of 29.3%. The “TECC24 AUC fold over DMSO @10 μM” value in test [2] is reported as “C (“C” refers to AUC @10 uM <4)”.

In test [1], `O=C(N[C@@H](Cc1ccccc1)C(=O)O)c1ccc2ccccc2c1OCCc1ccc(C(F)(F)F)cc1` [Example 97, (1-(4-(trifluoromethyl)phenethoxy)-2-naphthoyl)-L-phenylalanine] yielded an Emax of 1.1%. Further, the “TECC24 AUC fold over DMSO @10 μM” value in test [2] is “C (“C” refers to AUC @10 uM <4)”.

Take `O=C(N[C@@H](Cc1ccccc1)C(=O)O)c1ccc2ccccc2c1OCc1ccc(Cl)c(Cl)c1` [Example 99, (1-((3,4-dichlorobenzyl)oxy)-2-naphthoyl)-L-phenylalanine]: in test [1], the response was half-maximal at 5700 nM (EC50) and the Emax stood at 83.1%. Besides, the “TECC24 AUC fold over DMSO @10 μM” value in test [2] is listed as “C (“C” refers to AUC @10 uM <4)”.
